According to US6472348B1, “Pyridone derivatives and herbicides” (Kumiai Chemical Industry Co., Ltd., priority 1996, dated 2002):

What was measured:
wheat (Tr) = experiment: Test Example 9: crop plant selectivity by upland field foliage treatment (wheat), phytotoxicity; settings: dose 1.6 g ai/10a, 14th day after treatment;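 note: grade of crop injury; 5 = at least 90%; 4 = 70 to 90%; 3 = 50 to 70%; 2 = 30 to 50%; 1 = 10 to 30%; 0 = under 10%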
Outline: (§1)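 Sand-filled pot, wheat + weeds co-sown; greenhouse 2 wk, then foliage treatment; greenhouse culture continued; visual scoring of weed control and crop injury at 14 d post-treatment per grading scale.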

[1] = tested on: common lambsquarters (Ch); experiment: Test Example 10: crop plant selectivity by upland field foliage treatment (soybean), herbicidal effects; format: in vivo; settings: dose 1.6 g ai/10a, 14th day after treatment
Procedure: (§2) (Test on Crop Plant Selectivity by Upland Field Foliage Treatment)
(§3) In a plastic pot (surface area: 600 cm^2) filled with sand, soybean (Gl), pale smartweed (Po), slender amaranth (Am), common lambsquarters (Ch) and China jute (Ab) were sown and cultured in a green house for 2 weeks. […] The plants were then cultured in a green house, and the evaluation of the herbicidal effects and phytotoxicity was conducted on the 14th day after the treatment in accordance with the standards as identified in Table 47.

China jute (Ab) [2] = experiment: as above; format: in vivo; settings: dose 1.6 g ai/10a, 14th day after treatment
Procedure: as §2, §3

slender amaranth (Am) [3] = experiment: as above; format: in vivo; settings: dose 1.6 g ai/10a, 14th day after treatment
Procedure: as §2, §3

pale smartweed (Po) [4] = experiment: as above; format: in vivo; settings: dose 1.6 g ai/10a, 14th day after treatment
Procedure: as §2, §3

[5] = tested on: common lambsquarters (Ch); experiment: Test Example 9: crop plant selectivity by upland field foliage treatment (wheat), herbicidal effects; format: in vivo; design: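 grade of growth control; 5 = at least 90%; 4 = 70 to 90%; 3 = 50 to 70%; 2 = 30 to 50%; 1 = 10 to 30%; 0 = under 10%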; settings: dose 1.6 g ai/10a, 14th day after treatment
Outline: as §1

China jute (Ab) [6] = experiment: as above; format: in vivo; design: scale not given here; settings: dose 1.6 g ai/10a, 14th day after treatment
Outline: as §1

slender amaranth (Am) [7] = experiment: as above; format: in vivo; design: scale not given here; settings: dose 1.6 g ai/10a, 14th day after treatment
Outline: as §1

pale smartweed (Po) [8] = experiment: as above; format: in vivo; design: scale not given here; settings: dose 1.6 g ai/10a, 14th day after treatment
Outline: as §1

soybean (Gl) = experiment: Test Example 10: crop plant selectivity by upland field foliage treatment (soybean), phytotoxicity; settings: dose 1.6 g ai/10a, 14th day after treatment
Procedure: as §2, §3

bulrush (Sc) = experiment: Test Example 1: herbicidal effects by paddy field soil treatment; format: in vivo; settings: 100 g of the active ingredient per 10 ares, 21st day after the application, index 0-5 of Table 47;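 note: grade of growth control; 5 = at least 90%; 4 = 70 to 90%; 3 = 50 to 70%; 2 = 30 to 50%; 1 = 10 to 30%; 0 = under 10%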
Outline: (§4)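 Flooded paddy-soil pots (3 cm water) sown after puddling/leveling; treatment 100 g a.i./10 ares; greenhouse culture; herbicidal effect rated visually on a scoring scale at 21 d post-application.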

barnyardgrass (Ec) [9] = experiment: as above; format: in vivo; settings: 100 g of the active ingredient per 10 ares, 21st day after the application, index 0-5 of Table 47
Outline: as §4

monochoria (Mo) = experiment: as above; format: in vivo; settings: 100 g of the active ingredient per 10 ares, 21st day after the application, index 0-5 of Table 47;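 note: grade of growth control; 5 = at least 90%; 4 = 70 to 90%; 3 = 50 to 70%; 2 = 30 to 50%; 1 = 10 to 30%; 0 = under 10%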
Outline: as §4

rice flatsedge (Ci) [10] = experiment: Test Example 3: herbicidal effects by upland field foliage treatment; format: in vivo; design: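 grade of growth control; 5 = at least 90%; 4 = 70 to 90%; 3 = 50 to 70%; 2 = 30 to 50%; 1 = 10 to 30%; 0 = under 10%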
Outline: (§5)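 Pot culture: sand, 120 cm^2 surface; seeds sown, soil-covered, greenhouse 2 weeks. Foliage treatment applied at that stage. Herbicidal effect rated by standard scale, day 14 post-treatment.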

barnyardgrass (Ec) [11] = experiment: as above; format: in vivo; design: scale not given here
Outline: as §5

[12] = tested on: common lambsquarters (Ch); experiment: as above; format: in vivo; design: scale not given here
Outline: as §5

slender amaranth (Am) [13] = experiment: as above; format: in vivo; design: scale not given here
Outline: as §5

Diaitaria ciliaris (Di) [14] = experiment: as above; format: in vivo; design: scale not given here
Outline: as §5

pale smartweed (Po) [15] = experiment: as above; format: in vivo; design: scale not given here
Outline: as §5

[16] = tested on: common lambsquarters (Ch); experiment: Test Example 11: crop plant selectivity by upland field foliage treatment (corn), herbicidal effects; format: in vivo; design: scale not given here; settings: upland field foliage treatment (corn test), dose 1.6 g ai/10a, 14th day after treatment
Outline: (§6)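 Corn and the weed species were sown together in sand-filled pots and grown in a greenhouse for 2 weeks before foliar treatment. Herbicidal effect was scored on day 14 after treatment against a graded standard scale, with corn phytotoxicity scored alongside.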

China jute (Ab) [17] = experiment: as above; format: in vivo; design: scale not given here; settings: upland field foliage treatment (corn test), dose 1.6 g ai/10a, 14th day after treatment
Outline: as §6

slender amaranth (Am) [18] = experiment: as above; format: in vivo; design: scale not given here; settings: upland field foliage treatment (corn test), dose 1.6 g ai/10a, 14th day after treatment
Outline: as §6

pale smartweed (Po) [19] = experiment: as above; format: in vivo; design: scale not given here; settings: upland field foliage treatment (corn test), dose 1.6 g ai/10a, 14th day after treatment
Outline: as §6

rice flatsedge (Ci) [20] = experiment: Test Example 2: herbicidal effects by upland field soil treatment; format: in vivo; settings: 100 g of the active ingredient per 10 ares;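 note: grade of growth control; 5 = at least 90%; 4 = 70 to 90%; 3 = 50 to 70%; 2 = 30 to 50%; 1 = 10 to 30%; 0 = under 10%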
Source text: (§7) (Test on Herbicidal Effects by Upland Field Soil Treatment)

barnyardgrass (Ec) [21] = experiment: as above; format: in vivo; settings: 100 g of the active ingredient per 10 ares
Source text: as §7

[22] = tested on: common lambsquarters (Ch); experiment: as above; format: in vivo; settings: 100 g of the active ingredient per 10 ares
Source text: as §7

Digitaria ciliaris (Di) = experiment: as above; format: in vivo; settings: 100 g of the active ingredient per 10 ares
Source text: as §7

slender amaranth (Am) [23] = experiment: as above; format: in vivo; settings: 100 g of the active ingredient per 10 ares
Source text: as §7

pale smartweed (Po) [24] = experiment: as above; format: in vivo; settings: 100 g of the active ingredient per 10 ares
Source text: as §7

corn (Ze) = experiment: Test Example 11: crop plant selectivity by upland field foliage treatment (corn), phytotoxicity; settings: upland field foliage treatment, dose 1.6 g ai/10a, 14th day after treatment
Outline: as §6

cotton (Go) = experiment: Test Example 4: crop plant selectivity by upland field soil treatment (cotton), phytotoxicity; format: in vivo; design: scale not given here; settings: evaluated 21st day after application
Outline: (§8)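 Sand-filled pots, seeds sown then soil-covered; soil application; greenhouse culture; visual scoring of weed control and cotton injury at day 21 post-application.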

Diaitaria ciliaris (Di) [25] = experiment: Test Example 4: crop plant selectivity by upland field soil treatment (cotton), herbicidal effects; format: in vivo; settings: evaluated 21st day after application
Procedure: (Test on Crop Plant Selectivity by Upland Field Soil Treatment)
In a plastic pot (surface area: 600 cm^2) filled with sand, cotton (Go), Diaitaria ciliaris (Di), green foxtail (Se), pale smartweed (Po), slender amaranth (Am), common lambsquarters (Ch) and China jute (Ab) were sown and covered with soil. […] The plants were then cultured in a green house, and the evaluation of the herbicidal effects and phytotoxicity was conducted on the 21st day after the application in accordance with the standards as identified in Table 47. Symbol—represents “not tested”.

green foxtail (Se) = experiment: as above; format: in vivo; design: scale not given here; settings: dose 6.3 g ai/10 a, evaluated 21st day after application
Outline: as §8

[26] = tested on: common lambsquarters (Ch); experiment: as above; format: in vivo; design: scale not given here; settings: evaluated 21st day after application
Outline: as §8

China jute (Ab) [27] = experiment: as above; format: in vivo; design: scale not given here; settings: evaluated 21st day after application
Outline: as §8

slender amaranth (Am) [28] = experiment: as above; format: in vivo; design: scale not given here; settings: evaluated 21st day after application
Outline: as §8

pale smartweed (Po) [29] = experiment: as above; format: in vivo; design: scale not given here; settings: evaluated 21st day after application
Outline: as §8

[30] = 100 g of the active ingredient per 10 ares, evaluated on the 14th day after treatment
[31] = 21st day after the application, index 0-5 of Table 47
[32] = 100 g active ingredient per 10 ares, evaluated 14th day after treatment
[33] = evaluated on the 21st day after application

COCSc1cc(-c2ccc(C(F)(F)F)n(C)c2=O)c(Cl)cc1Cl [1-126]
2: Phytotoxicity Tr (wheat (Tr)) | Phytotoxicity Gl (soybean (Gl)) | Phytotoxicity Ze (corn (Ze))
5: Herbicidal effects Ch [1] | Herbicidal effects Ab (China jute (Ab) [2]) | Herbicidal effects Am (slender amaranth (Am) [3]) | Herbicidal effects Po (pale smartweed (Po) [4]) | Herbicidal effects Ch [5] | Herbicidal effects Ab (China jute (Ab) [6]) | Herbicidal effects Am (slender amaranth (Am) [7]) | Herbicidal effects Po (pale smartweed (Po) [8]) | Herbicidal effects Sc (bulrush (Sc)) | Herbicidal effects Ec (barnyardgrass (Ec) [9]) | Herbicidal effects Mo (monochoria (Mo)) | Herbicidal effects Ci (rice flatsedge (Ci) [10]; [30]) | Herbicidal effects Ec (barnyardgrass (Ec) [11]; [30]) | Herbicidal effects Ch [12, 30] | Herbicidal effects Am (slender amaranth (Am) [13]; [30]) | Herbicidal effects Di (Diaitaria ciliaris (Di) [14]; [30]) | Herbicidal effects Po (pale smartweed (Po) [15]; [30]) | Herbicidal effects Ch [16] | Herbicidal effects Ab (China jute (Ab) [17]) | Herbicidal effects Am (slender amaranth (Am) [18]) | Herbicidal effects Po (pale smartweed (Po) [19]) | Herbicidal effects Ci (rice flatsedge (Ci) [20]; [31]) | Herbicidal effects Ec (barnyardgrass (Ec) [21]; [31]) | Herbicidal effects Ch [22, 31] | Herbicidal effects Di (Digitaria ciliaris (Di); [31]) | Herbicidal effects Am (slender amaranth (Am) [23]; [31]) | Herbicidal effects Po (pale smartweed (Po) [24]; [31])

CC(C)Oc1cc(-c2ccc(C(F)(F)F)n(C)c2=O)c(F)cc1Cl [Compound No. 1-14]
4: Herbicidal effects Ab (China jute (Ab) [27]; dose 1.6 g ai/10 a)
5: Herbicidal effects Sc (bulrush (Sc)) | Herbicidal effects Ec (barnyardgrass (Ec) [9]) | Herbicidal effects Mo (monochoria (Mo)) | Herbicidal effects Ci (rice flatsedge (Ci) [10]; [30]) | Herbicidal effects Ec (barnyardgrass (Ec) [11]; [30]) | Herbicidal effects Ch [12, 30] | Herbicidal effects Am (slender amaranth (Am) [13]; [30]) | Herbicidal effects Di (Diaitaria ciliaris (Di) [14]; [30]) | Herbicidal effects Po (pale smartweed (Po) [15]; [30]) | Herbicidal effects Di (Diaitaria ciliaris (Di) [25]; dose 1.6 g ai/10 a) | Herbicidal effects Di (Diaitaria ciliaris (Di) [25]; dose 6.3 g ai/10 a) | Herbicidal effects Ci (rice flatsedge (Ci) [20]; [31]) | Herbicidal effects Ec (barnyardgrass (Ec) [21]; [31]) | Herbicidal effects Ch [22, 31] | Herbicidal effects Di (Digitaria ciliaris (Di); [31]) | Herbicidal effects Am (slender amaranth (Am) [23]; [31]) | Herbicidal effects Po (pale smartweed (Po) [24]; [31]) | Herbicidal effects Se (green foxtail (Se)) | Herbicidal effects Ch ([26]; dose 1.6 g ai/10 a) | Herbicidal effects Ch ([26]; dose 6.3 g ai/10 a) | Herbicidal effects Ab (China jute (Ab) [27]; dose 6.3 g ai/10 a) | Herbicidal effects Am (slender amaranth (Am) [28]; dose 1.6 g ai/10 a) | Herbicidal effects Am (slender amaranth (Am) [28]; dose 6.3 g ai/10 a) | Herbicidal effects Po (pale smartweed (Po) [29]; dose 1.6 g ai/10 a) | Herbicidal effects Po (pale smartweed (Po) [29]; dose 6.3 g ai/10 a)
0: Phytotoxicity Go (cotton (Go); dose 1.6 g ai/10 a) | Phytotoxicity Go (cotton (Go); dose 6.3 g ai/10 a)

Cn1c(C(F)(F)F)ccc(-c2cc(Oc3ccccc3)c(Cl)cc2F)c1=O [Compound No. 1-22]
2: Phytotoxicity Tr (wheat (Tr)) | Phytotoxicity Gl (soybean (Gl)) | Phytotoxicity Ze (corn (Ze))
5: Herbicidal effects Ch [1] | Herbicidal effects Ab (China jute (Ab) [2]) | Herbicidal effects Am (slender amaranth (Am) [3]) | Herbicidal effects Po (pale smartweed (Po) [4]) | Herbicidal effects Ch [5] | Herbicidal effects Ab (China jute (Ab) [6]) | Herbicidal effects Am (slender amaranth (Am) [7]) | Herbicidal effects Po (pale smartweed (Po) [8]) | Herbicidal effects Sc (bulrush (Sc)) | Herbicidal effects Ec (barnyardgrass (Ec) [9]) | Herbicidal effects Mo (monochoria (Mo)) | Herbicidal effects Ci (rice flatsedge (Ci) [10]; [30]) | Herbicidal effects Ec (barnyardgrass (Ec) [11]; [30]) | Herbicidal effects Ch [12, 30] | Herbicidal effects Am (slender amaranth (Am) [13]; [30]) | Herbicidal effects Di (Diaitaria ciliaris (Di) [14]; [30]) | Herbicidal effects Po (pale smartweed (Po) [15]; [30]) | Herbicidal effects Ch [16] | Herbicidal effects Ab (China jute (Ab) [17]) | Herbicidal effects Am (slender amaranth (Am) [18]) | Herbicidal effects Po (pale smartweed (Po) [19])

Cn1c(C(F)(F)F)ccc(-c2c(F)cc(Cl)c3oc(C(Br)Br)cc23)c1=O [Compound No. 4-27, 3-(7-chloro-2-dibromomethyl-5-fluorobenzofuran-4-yl)-1-methyl-6-trifluoromethyl-2-(1H)-pyridone]
2: Phytotoxicity Tr (wheat (Tr)) | Phytotoxicity Ze (corn (Ze))
4: Herbicidal effects Ec (barnyardgrass (Ec) [11]; [32]) | Herbicidal effects Ec (barnyardgrass (Ec) [21]; [33])
5: Herbicidal effects Ch [5] | Herbicidal effects Ab (China jute (Ab) [6]) | Herbicidal effects Am (slender amaranth (Am) [7]) | Herbicidal effects Po (pale smartweed (Po) [8]) | Herbicidal effects Sc (bulrush (Sc)) | Herbicidal effects Ec (barnyardgrass (Ec) [9]) | Herbicidal effects Mo (monochoria (Mo)) | Herbicidal effects Ci (rice flatsedge (Ci) [10]; [32]) | Herbicidal effects Ch [12, 32] | Herbicidal effects Am (slender amaranth (Am) [13]; [32]) | Herbicidal effects Di (Diaitaria ciliaris (Di) [14]; [32]) | Herbicidal effects Po (pale smartweed (Po) [15]; [32]) | Herbicidal effects Ch [16] | Herbicidal effects Ab (China jute (Ab) [17]) | Herbicidal effects Am (slender amaranth (Am) [18]) | Herbicidal effects Po (pale smartweed (Po) [19]) | Herbicidal effects Ci (rice flatsedge (Ci) [20]; [33]) | Herbicidal effects Ch [22, 33] | Herbicidal effects Di (Digitaria ciliaris (Di); [33]) | Herbicidal effects Am (slender amaranth (Am) [23]; [33]) | Herbicidal effects Po (pale smartweed (Po) [24]; [33])
107 to 109 °C: melting point
